Experiment [1] has as its system patients with PD. Briefly: Circadian rhythm of wrist skin temperature. It is filed as in vivo, human. The settings on record: 12 evaluable patients; for markers of circadian function (IS, RA, CFI, IV) of wrist skin temperature: fixed dose versus baseline. On the procedure:
(6) I-Button Temperature Assessment. The I-Button is a small, rugged self-sufficient system that measures temperature and records the results in a protected memory section. The Thermochron I-Button DS1921H (Maxim Integrated, Dallas, Tex.) was used for skin temperature measurement. I-Buttons were programmed to sample every 10 mins., and attached to a double-sided cotton sport wrist band using Velcro, with the sensor face of the I-Button placed over the inside of the wrist, on the radial artery of the dominant hand. Subjects removed and replaced the data logger when necessary (i.e., to have a bath or shower). The value of skin temperature assessment in sleep research is that the endogenous skin warming resulting from increased skin blood flow is functionally linked to sleep propensity. From the collected data, the mesor, amplitude, acrophase (time of peak temperature), Rayleight test (an index of interdaily stability), mean waveforms are calculated.);
Assessments were made at baseline and at the end of the fixed dose and washout periods. Circadian system status was evaluated by continuously monitoring wrist skin temperature (Thermochron iButton DS1921H; Maxim, Dallas) following published procedures (Sarabia et al. 2008).
Circadian rhythm of skin temperature was evaluable in 12 patients (i.e., those who had recordings that extended from baseline through washout). Circadian system functionality was evaluated by continuously monitoring wrist skin temperature using a temperature sensor (Thermochron iButton DS1921H; Maxim, Dallas, Tex.) (Sarabia et al. 2008). […]
Briefly, this analysis includes the following parameters: (i) the inter-daily stability (the constancy of 24-hour rhythmic pattern over days, IS); (ii) intra-daily variability (rhythm fragmentation, IV); (iii) average of 10-minute intervals for the 10 hours with the minimum temperature (L10); (iv) average of 10-minute intervals for the 5 hours with the maximum temperature (M5) and the relative amplitude (RA), which was determined by the difference between M5 and L10, divided by the sum of both. […]

For experiment [2], the system named is patients with PD. Briefly: Sleep diary: total sleep time and REM-behavior disorder. It counts as in vivo, human. On the procedure: FIG. 3 is a chart of total sleep time in relation to squalamine dose. Total sleep time was obtained from the sleep diary by subtracting awake time during the night from total time spent in bed. Total sleep time per night was logged for each patient at baseline, each dosing period and at washout, and the means were determined. The light grey bar represents the baseline value for each cohort at a given dose level and the dark grey bar represents the value for the same cohort at the stated dose of squalamine (ENT-01; Kenterin™). The number of patients represented at each value are: Baseline, 33; 75 mg, 21; 100 mg, 28; 125 mg, 18; 150 mg, 15; 175 mg, 12; 200 mg, 7; 225 mg, 3; 250 mg, 2; washout, 33. P values were as follows: 75 mg, p=0.4; 100 mg, p=0.1; 125 mg, p=0.3; 150 mg, p=0.07; 175 mg, p=0.03; 200 mg, p=0.3; 225 mg, p=0.5; 250 mg, p=0.3; wash-out, p=0.04 (paired t test).
(5) Sleep Diary (participants completed a sleep diary on a daily basis throughout the study. The diaries included time into bed and estimated time to sleep as well as wake time and duration during the night.); […]

“Also recorded” adds a separate entry of the source.

From patent US20200038416A1, “METHODS OF TREATING CARDIAC CONDUCTION DEFECTS USING AMINOSTEROL COMPOSITIONS” (Enterin, Inc., priority 2018, published 2020) come the findings set out here.

Consider `CC(C)[C@@H](CC[C@@H](C)[C@H]1CC[C@H]2[C@@H]3[C@H](O)C[C@H]4C[C@@H](NCCCNCCCCN)CC[C@]4(C)[C@H]3CC[C@]12C)OS(=O)(=O)O` (single isomer, unassigned) [squalamine (ENT-01), squalamine], for which the “markers of circadian function (IS, RA, CFI, IV) of wrist skin temperature” value with patients with PD [1] is “improved all markers of healthy circadian function”; in the experiment with patients with PD [1] (listed as ENT-01), “significant positive impact; also recorded: improved all markers of healthy circadian function”. Also, the “circadian parameters during wash-out period” value with patients with PD [1] (wash-out versus baseline (IS, CFI)) was “improvement persisted for several of these circadian parameters”. Also, in the experiment on patients with PD [2] (dose escalation, Stage 2), the “RBD and total sleep time” value is on record as “improved progressively in a dose-dependent manner”. In addition, the “total sleep time versus baseline by dose” value in the experiment with patients with PD [2] (doses beyond 125 mg) is “consistently higher than baseline beyond 125 mg”.
